The compounds below were run against KRAS (aa 1-169) G12C, C51S, C80L, C118S (Homo sapiens (Human), UniProt P01116, C118S/C51S/C80L/G12C) (assay: KRAS G12C SOS1-mediated nucleotide exchange / cRaf RBD binding FRET assay (Biochemical Functional Assay)). Details: GDP-loaded KRAS G12C pre-incubated with compound at 24° C. for 3 hrs; SOS1, GTPγS, GST-cRaf RBD; inhibition of nucleotide exchange.
KRAS (aa 1-169) G12C, C51S, C80L, C118S, sequence (P01116 other isoform, or with tags, fused parts or gaps G12C/C51S/C80L/C118S): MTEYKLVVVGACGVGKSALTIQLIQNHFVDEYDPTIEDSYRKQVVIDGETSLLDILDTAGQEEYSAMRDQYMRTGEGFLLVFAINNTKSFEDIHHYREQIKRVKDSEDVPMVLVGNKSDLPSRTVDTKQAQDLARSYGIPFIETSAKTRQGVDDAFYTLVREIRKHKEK
Experimental: The KRAS ([…]) G12C, C51S, C80L, C118S with a His-tag was expressed, purified and loaded with GDP in house. All protein and substrate solutions were prepared in assay buffer containing 25 mM HEPES pH7.5, 10 mM MgCl2, and 0.01% Triton X-100. Purified GDP-loaded KRAS (aa 1-169) G12C, C51S, C80L, C118S protein was pre-incubated with a serially diluted compound at 24° C. for 3 hrs. Purified SOS1 (aa 564-1049) protein, GTPYS (Sigma) and GST-cRaf RBD (aa 1-149) were then added to each well and incubated at 24° C. for additional 3 hrs. […] Following the incubation, Mab Anti-6HIS-Tb cryptate (Cisbio) and Mab Anti GST-XL665 (Cisbio) were added and further incubated at 24° C. for 3 hrs. The binding interaction between active GTPγS KRAS G12C and GST-cRaf RBD brings the Tb and XL665 into close proximity enabling an increased FRET signal (Ex337 nm, Em665 nm/620 nm). The inhibition percentage of nucleotide exchange reaction in presence of increasing concentrations of compounds was calculated based on the ratio of fluorescence at 665 nm to that at 620 nm detected on a BMG PHERAstar FSX instrument. The IC50 value of each compound was calculated from fitting the data to the four-parameter logistic model by Dotmatics.
With `C=CC(=O)N1CCN(c2nc(OC[C@@H]3CCCN3C)nn3c(Cc4cccc5ccccc45)cnc23)CC1` [Compound A1, (S)-1-(4-(2-((1-methylpyrrolidin-2-yl)methoxy)-7-(naphthalen-1-ylmethyl)imidazo[2,1-f][1,2,4]triazin-4-yl)piperazin-1-yl)prop-2-en-1-one] the IC50 was 3.28 µM. Work on `C=CC(=O)N1CCN(c2nc(OC[C@@H]3CCCN3C)nn3c(Cc4cc(O)cc5ccccc45)cnc23)CC1` [Compound A2, (S)-1-(4-(7-((3-hydroxynaphthalen-1-yl)methyl)-2-((1-methylpyrrolidin-2-yl)methoxy)imidazo[2,1-f][1,2,4]triazin-4-yl)piperazin-1-yl)prop-2-en-1-one] yielded an IC50 of 0.427 µM. `C=CC(=O)N1CCN(c2nc(OC[C@@H]3CCCN3C)nn3c(Cc4cccc5ccccc45)cnc23)C[C@@H]1CC#N` [Compound A4, 2-((S)-1-acryloyl-4-(2-(((S)-1-methylpyrrolidin-2-yl)methoxy)-7-(naphthalen-1-ylmethyl)imidazo[2,1-f][1,2,4]triazin-4-yl)piperazin-2-yl)acetonitrile] showed an IC50 of 0.0467 µM. `C=CC(=O)N1CCN(c2nc(OC[C@@H]3CCCN3C)nn3c(Cc4cc(O)cc5ccccc45)cnc23)C[C@@H]1CC#N` [Compound A5, 2-((S)-1-acryloyl-4-(7-((3-hydroxynaphthalen-1-yl)methyl)-2-(((S)-1-methylpyrrolidin-2-yl)methoxy)imidazo[2,1-f][1,2,4]triazin-4-yl)piperazin-2-yl)acetonitrile] gave an IC50 of 0.029 µM. Work on `C=CC(=O)N1CCN(c2nc(OC[C@@H]3CCCN3C)nn3c(Cc4cccc5cccc(Cl)c45)cnc23)C[C@@H]1CC#N` [Compound A6, 2-((S)-1-acryloyl-4-(7-((8-chloronaphthalen-1-yl)methyl)-2-(((S)-1-methylpyrrolidin-2-yl)methoxy)imidazo[2,1-f][1,2,4]triazin-4-yl)piperazin-2-yl)acetonitrile] yielded an IC50 of 0.1 µM. With `C=CC(=O)N1CCN(c2nc(OC[C@@H]3CCCN3C)nn3c(Cc4cccc5cccc(C)c45)cnc23)C[C@@H]1CC#N` [Compound A7, 2-((S)-1-acryloyl-4-(7-((8-methylnaphthalen-1-yl)methyl)-2-(((S)-1-methylpyrrolidin-2-yl)methoxy)imidazo[2,1-f][1,2,4]triazin-4-yl)piperazin-2-yl)acetonitrile] the IC50 was 0.0478 µM. `C=CC(=O)N1CCN(c2nc(OC[C@@H]3CCCN3C)nn3c(Cc4ccc5ccccc5c4)cnc23)C[C@@H]1CC#N` [Compound A8, 2-((S)-1-acryloyl-4-(2-(((S)-1-methylpyrrolidin-2-yl)methoxy)-7-(naphthalen-2-ylmethyl)imidazo[2,1-f][1,2,4]triazin-4-yl)piperazin-2-yl)acetonitrile] was tested, and the IC50 was 7.7 µM. In the case of `C=CC(=O)N1CCN(c2nc(OC[C@@H]3CCCN3C)nn3c(Cc4cccc5c4CCO5)cnc23)C[C@@H]1CC#N` [Compound A9, 2-((S)-1-acryloyl-4-(7-((2,3-dihydrobenzofuran-4-yl)methyl)-2-(((S)-1-methylpyrrolidin-2-yl)methoxy)imidazo[2,1-f][1,2,4]triazin-4-yl)piperazin-2-yl)acetonitrile], the IC50 is reported as 1.06 µM. `C=CC(=O)N1CCN(c2nc(OC[C@@H]3CCCN3C)nn3c(Cc4ccc(OC)c5ccccc45)cnc23)C[C@@H]1CC#N` [Compound A10, 2-((S)-1-acryloyl-4-(7-((4-methoxynaphthalen-1-yl)methyl)-2-(((S)-1-methylpyrrolidin-2-yl)methoxy)imidazo[2,1-f][1,2,4]triazin-4-yl)piperazin-2-yl)acetonitrile] showed an IC50 of 0.187 µM. Compound `C=CC(=O)N1CCN(c2nc(OC[C@@H]3CCCN3C)nn3c(Cc4c(F)cccc4Cl)cnc23)C[C@@H]1CC#N` [Compound A11, 2-((S)-1-acryloyl-4-(7-(2-chloro-6-fluorobenzyl)-2-(((S)-1-methylpyrrolidin-2-yl)methoxy)imidazo[2,1-f][1,2,4]triazin-4-yl)piperazin-2-yl)acetonitrile] has an IC50 of 0.215 µM. `C=CC(=O)N1CCN(c2nc(OC[C@@H]3CCCN3C)nn3c(Cc4ccccc4Cl)cnc23)C[C@@H]1CC#N` [Compound A12, 2-((S)-1-acryloyl-4-(7-(2-chlorobenzyl)-2-(((S)-1-methylpyrrolidin-2-yl)methoxy)imidazo[2,1-f][1,2,4]triazin-4-yl)piperazin-2-yl)acetonitrile] was tested, and the IC50 was 0.217 µM. With `C=CC(=O)N1CCN(c2nc(OC[C@@H]3CCCN3C)nn3c(Cc4cccc5c4OCC5)cnc23)C[C@@H]1CC#N` [Compound A13, 2-((S)-1-acryloyl-4-(7-((2,3-dihydrobenzofuran-7-yl)methyl)-2-(((S)-1-methylpyrrolidin-2-yl)methoxy)imidazo[2,1-f][1,2,4]triazin-4-yl)piperazin-2-yl)acetonitrile] the IC50 was 0.101 µM. `C=CC(=O)N1CCN(c2nc(OC[C@@H]3CC(F)(F)CN3C)nn3c(Cc4cccc5ccccc45)cnc23)C[C@@H]1CC#N` [Compound A14, 2-((S)-1-acryloyl-4-(2-(((S)-4,4-difluoro-1-methylpyrrolidin-2-yl)methoxy)-7-(naphthalen-1-ylmethyl)imidazo[2,1-f][1,2,4]triazin-4-yl)piperazin-2-yl)acetonitrile] gave an IC50 of 0.506 µM. `C=CC(=O)N1CCN(c2nc(OC[C@@H]3CCCN3C)nn3c(Cc4cccc5[nH]ncc45)cnc23)C[C@@H]1CC#N` [Compound A15, 2-((S)-4-(7-((1H-indazol-4-yl)methyl)-2-(((S)-1-methylpyrrolidin-2-yl)methoxy)imidazo[2,1-f][1,2,4]triazin-4-yl)-1-acryloylpiperazin-2-yl)acetonitrile] gave an IC50 of 1.18 µM. `C=CC(=O)N1CCN(c2nc(OC[C@@H]3CCCN3C)nn3c(Cc4cccc5ccccc45)cnc23)[C@@H](C)C1` [Compound A17, 1-((S)-3-methyl-4-(2-(((S)-1-methylpyrrolidin-2-yl)methoxy)-7-(naphthalen-1-ylmethyl)imidazo[2,1-f][1,2,4]triazin-4-yl)piperazin-1-yl)prop-2-en-1-one] was tested, and the IC50 was 2.93 µM. `C=CC(=O)N1CCN(c2nc(OC[C@@H]3CCCN3C)nn3c(Cc4ccccc4C(F)(F)F)cnc23)C[C@@H]1CC#N` [Compound A18, 2-((S)-1-acryloyl-4-(2-(((S)-1-methylpyrrolidin-2-yl)methoxy)-7-(2-(trifluoromethyl)benzyl)imidazo[2,1-f][1,2,4]triazin-4-yl)piperazin-2-yl)acetonitrile] gave an IC50 of 0.235 µM. For `C=CC(=O)N1CCN(c2nc(OC[C@@H]3CCCN3C)nn3c(Cc4ccc(O)c5ccccc45)cnc23)C[C@@H]1CC#N` [Compound A19, 2-((S)-1-acryloyl-4-(7-((4-hydroxynaphthalen-1-yl)methyl)-2-(((S)-1-methylpyrrolidin-2-yl)methoxy)imidazo[2,1-f][1,2,4]triazin-4-yl)piperazin-2-yl)acetonitrile], the IC50 was 0.0096 µM. `C=CC(=O)N1CCN(c2nc(OC[C@@H]3CCCN3C)nn3c(Cc4c(O)cccc4F)cnc23)C[C@@H]1CC#N` [Compound A20, 2-((S)-1-acryloyl-4-(7-(2-fluoro-6-hydroxybenzyl)-2-(((S)-1-methylpyrrolidin-2-yl)methoxy)imidazo[2,1-f][1,2,4]triazin-4-yl)piperazin-2-yl)acetonitrile] gave an IC50 of 0.0191 µM. In the case of `C=CC(=O)N1CCN(c2nc(OC[C@@H]3CCCN3C)nn3c(Cc4c(O)ccc5ccccc45)cnc23)C[C@@H]1CC#N` [Compound A21, 2-((S)-1-acryloyl-4-(7-((2-hydroxynaphthalen-1-yl)methyl)-2-(((S)-1-methylpyrrolidin-2-yl)methoxy)imidazo[2,1-f][1,2,4]triazin-4-yl)piperazin-2-yl)acetonitrile], the IC50 is reported as 0.0208 µM. Compound `C=CC(=O)N1CCN(c2nc(OC[C@@H]3CCCN3C)nn3c(C4CCc5ccccc54)cnc23)C[C@@H]1CC#N` (stereo partly drawn) [Compound A22, 2-((2S)-1-acryloyl-4-(7-(2,3-dihydro-1H-inden-1-yl)-2-(((S)-1-methylpyrrolidin-2-yl)methoxy)imidazo[2,1-f][1,2,4]triazin-4-yl)piperazin-2-yl)acetonitrile] has an IC50 of 0.201 µM. `C=CC(=O)N1CCN(c2nc(OC[C@@H]3CCCN3C)nn3c(C(=O)c4cccc5ccccc45)cnc23)C[C@@H]1CC#N` [Compound A23, 2-((S)-4-(7-(1-naphthoyl)-2-(((S)-1-methylpyrrolidin-2-yl)methoxy)imidazo[2,1-f][1,2,4]triazin-4-yl)-1-acryloylpiperazin-2-yl)acetonitrile] showed an IC50 of 0.489 µM.

Same assay, conditions: same assay; the cell prints uM although the column head says nmol
In the case of `C=CC(=O)N1CCN(c2nc(OC[C@@H]3CCCN3C)nn3c(-c4cc(OC)cc5ccccc45)cnc23)C[C@@H]1CC#N` [Compound A3, 2-((S)-1-acryloyl-4-(7-(3-methoxynaphthalen-1-yl)-2-(((S)-1-methylpyrrolidin-2-yl)methoxy)imidazo[2,1-f][1,2,4]triazin-4-yl)piperazin-2-yl)acetonitrile], the IC50 is reported as over 10 µM. `C=CC(=O)N1CCN(c2nc(OC[C@@H]3CCCN3C)nn3c(Cc4cccc5[nH]ncc45)cnc23)C[C@@H]1CC(N)=O` [Compound A16, 2-((S)-4-(7-((1H-indazol-4-yl)methyl)-2-(((S)-1-methylpyrrolidin-2-yl)methoxy)imidazo[2,1-f][1,2,4]triazin-4-yl)-1-acryloylpiperazin-2-yl)acetamide] showed an IC50 of over 10 µM.

Reference: patent publication US20230322788A1, “IMIDAZOTRIAZINE AND PYRROLOPYRIMIDINE DERIVATIVES AS KRAS G12C INHIBITORS” (BeiGene, Ltd., priority 2020, published 2023)
